{"source": "patent US20260108451A1", "about": "“COMPOSITIONS FOR THE MANAGEMENT OF HIRSUTISM” (priority 2022, published 2026)", "tested_on": "Ornithine decarboxylase (ODC)", "experiment": "Expression of ornithine decarboxylase (ODC) by flow cytometry in dermal papilla cells", "format": "cell-based, human", "settings": "Control 26.8%", "description": "Dermal papilla cells (DPC) were cultured in DMEM medium with 10% FBS and seeded in 96 well tissue culture plate for the test. 24 hrs post seeding, DPC were treated with the test sample Ar-Turmerone at graded concentrations and incubated for 48 hrs in 5% CO2 incubator at 37° C. After 48 hrs the cells were collected from each well. These cells were incubated with Fluorescein isothiocyanate (FITC) labelled Ornithine-de-carboxylase antibody. After being washed with sterile PBS, samples were resuspended in PBS (pH 7.4) and acquired directly on the Flow cytometer. A fluorescence trigger was set on the FITC (FL1) parameter of the gated DPC populations (10,000 events). Percentage decrease of ODC expression in test samples was calculated with respect to un-treated cells (control), (FIG. 1).", "data": [{"smiles": "NCCCC(N)(C(=O)O)C(F)F", "note": "(stereo not shown) [Eflornithine]", "values": [{"measurement": "% Expression of ODC at 100 μg/ml", "value": 11.4, "unit": "%"}]}]}
